Data as given in patent US9327145B2, “Cosmetic compositions comprising manikara multinervis and extracts thereof” (Cognis IP Management GmbH, priority 2009, dated 2016).
Marks after values point to notes of the source that are not given here.

Columns and labels:
[1] = tested on: collagen type I; assay: Anti-glycation: non enzymatic glycation of collagen type I incubated with glucose (Schiff's bases fluorescence); format: biochemical; conditions: 3 weeks at 45° C., mean +/- SEM
Method: In order to evaluate the potential of Manilkara multinervis extract to reduce the rate of “non enzymatic” glycation of proteins such as skin collagen, the extract was tested in comparison to aminoguanidine as a positive reference. The “non-enzymatic” glycation results from the reaction of proteins with reducing sugars such as glucose and […]. These sugars react with the free amino groups present in the proteins to form the so called “Schiff's bases”, ultimately resulting in so-called “advanced glycosylation endproducts”. In human skin, the process of “non enzymatic” glycation causes in time a decrease of strength and an atrophy of dermis which are characteristic of skin aging.
The extracts were tested in vitro by incubating collagen type I in solution with glucose during 3 weeks at 45° C. Then the level of “non enzymatic” glycation was determined by measuring the rate of “Schiff's bases” through the record of fluorescence at 430 nm (excitation at 350 nm) of the supernatant solution recovered after centrifugation of the solutions during 15 minutes at 3500 rpm (revolution per minute). The rates of “non enzymatic” glycation were calculated as % referring to the control with glucose. The assays were repeated up to 6 times and the results were expressed in percentage referring to the control with glucose then presented as a mean+/− the SEM (standard error of mean) and statistically evaluated by the student t test. All % values given are weight-%.

[2] = tested on: human dermal fibroblasts; assay: Pro-collagen (type I) effect: released type I collagen (ELISA) and cellular proteins (Bradford); format: cell-based; conditions: 5 μg/ml; 3 days; percentage referring to the control medium; mean +/- SEM
Method: Manilkara multinervis extract according to example 1 was incubated on human dermal fibroblasts cultured in vitro and the release of collagen type I was measured in cell culture medium through an ELISA method. It was tested in comparison to the positive reference vitamin C (ascorbic acid). The human dermal fibroblasts were cultured within growth medium enriched with Fetal Calf Serum (FCS) and incubated for 1 day at 37° C. […] Thereafter, the cell number was measured by quantification of cellular proteins (Bradford's method) while the level of collagen synthesis was determined by quantification of collagen peptides in cell culture medium (ELISA method). The results were calculated through a reference range of proteins or collagen and then expressed in percentage referring to the control medium and presented as a mean+/−SEM (Standard Error of Mean) from 4 assays in triplicate.

[3] = tested on: human dermal fibroblasts; assay: Tropoelastin synthesis by immunocytochemistry (ICC); format: cell-based; conditions: 10 ng/ml
Method: Manilkara multinervis extract according to example 1 was incubated on human dermal fibroblasts cultured in vitro and the synthesis of tropoelastin was measured in cell culture medium through an ICC method. It was tested in comparison to the positive reference TGF-β1 (Transforming Growth Factor-β1).
(§1) The human dermal fibroblasts were cultured within growth medium enriched with Fetal Calf Serum (FCS) and incubated for 3 days at 37° C. Then the growth medium was exchanged for a standard medium containing FCS at 1% and the Manilkara multinervis extract according to example 1 and incubated several days at 37° C. Thereafter, the tropoelastin synthesis was measured by immunocytochemistry (ICC) technique. The results were expressed in percentage of staining occupation and presented for 3 assays as a mean+/−SEM (Standard Error of Mean) of 6 measurements.

[4] = tested on: human dermal fibroblasts; assay: Fibulin-5 synthesis by immunocytochemistry (ICC); format: cell-based; conditions: 10 ng/ml, mean only
Method: Manilkara multinervis extract according to example 1 was incubated on human dermal fibroblasts cultured in vitro and the synthesis of fibulin-5 was measured in cell culture medium through an ICC method. It was tested in comparison to the positive reference TGF-β1 (Transforming Growth Factor-β1).
as §1, with “and incubated for 5 days at” for “and incubated several days at”, “Thereafter, the fibulin-5 synthesis was” for “Thereafter, the tropoelastin synthesis was”, “presented for 2 assays as” for “presented for 3 assays as”

N=C(N)NN [Aminoguanidine, aminoguanidine]
Rate of Schiff's bases in %/control with glucose ([1]; 0.02%): 47 +/− 1** (n = 6) %/control with glucose | Rate of Schiff's bases in %/control with glucose ([1]; 0.05%): 34 +/− 1** (n = 6) %/control with glucose | Rate of Schiff's bases in %/control with glucose ([1]; 0.1%): 27 +/− 1** (n = 6) %/control with glucose

O=C1O[C@H]([C@@H](O)CO)C(O)=C1O [Vitamin C, ascorbic acid]
Cellular Proteins [2]: 97 +/− 4% | Released type I Collagen [2]: 138 +/− 14** %

TGF-β1: positive reference TGF-β1 (Transforming Growth Factor-β1)
stimulation of tropoelastin synthesis (mean) [3]: 82% | % of staining occupation Assay 1 (fibulin-5) ([4]; Assay 1, control 15.57 +/− 4.38): 79.99% | % of staining occupation Assay 2 (fibulin-5) ([4]; Assay 2, control 2.65 +/− 0.36): 18.8%
